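Step 1: Grow cells in 96-well plates. Step 2: Expose to compound for 48 hours at 5 concentrations. Step 3: Interpolate endpoints linearly; if unreached, use highest concentration. TGI: concentration producing complete growth inhibition.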
What was measured:
Assay in all cases: DTP human tumour cell line panel, 48 h
OVCAR-3 ovarian = system: OVCAR-3 ovarian
UO-31 renal = system: UO-31 renal
EKVX NSCLC = system: EKVX NSCLC
HCC-2998 colon = system: HCC-2998 colon
SK-MEL-28 melanoma = system: SK-MEL-28 melanoma
BT-549 breast = system: BT-549 breast
SK-MEL-5 melanoma = system: SK-MEL-5 melanoma
HOP-62 NSCLC = system: HOP-62 NSCLC
SR leukemia = system: SR leukemia
U251 CNS = system: U251 CNS
UACC-257 melanoma = system: UACC-257 melanoma
T-47D breast = system: T-47D breast
CCRF-CEM leukemia = system: CCRF-CEM leukemia
PC-3 prostate = system: PC-3 prostate
NCI-H460 lung = system: NCI-H460 lung
NCI/ADR-RES ovarian = system: NCI/ADR-RES ovarian
MDA-MB-435 = system: MDA-MB-435
HCT-15 colon = system: HCT-15 colon
HS 578T breast = system: HS 578T breast
KM12 colon = system: KM12 colon
NCI-H522 lung = system: NCI-H522 lung
DU-145 prostate = system: DU-145 prostate
K-562 leukemia = system: K-562 leukemia
RXF 393 renal = system: RXF 393 renal
SF-539 CNS = system: SF-539 CNS
HOP-92 NSCLC = system: HOP-92 NSCLC
786-0 renal = system: 786-0 renal
HT29 colon = system: HT29 colon
M14 melanoma = system: M14 melanoma
COLO 205 colon = system: COLO 205 colon
MALME-3M melanoma = system: MALME-3M melanoma
MCF7 breast = system: MCF7 breast
ACHN renal = system: ACHN renal
TK-10 renal = system: TK-10 renal
LOX IMVI melanoma = system: LOX IMVI melanoma
NCI-H23 lung = system: NCI-H23 lung
SK-MEL-2 melanoma = system: SK-MEL-2 melanoma
A498 renal = system: A498 renal
CAKI-1 renal = system: CAKI-1 renal
HL-60(TB) leukemia = system: HL-60(TB) leukemia
MDA-MB-231 breast = system: MDA-MB-231 breast
SNB-19 CNS = system: SNB-19 CNS
OVCAR-5 ovarian = system: OVCAR-5 ovarian
SK-OV-3 ovarian = system: SK-OV-3 ovarian
OVCAR-8 ovarian = system: OVCAR-8 ovarian
SF-268 CNS = system: SF-268 CNS
MOLT-4 leukemia = system: MOLT-4 leukemia
RPMI-8226 leukemia = system: RPMI-8226 leukemia
IGROV1 ovarian = system: IGROV1 ovarian
SF-295 CNS = system: SF-295 CNS
HCT-116 colon = system: HCT-116 colon
A549 NSCLC = system: A549 NSCLC
UACC-62 melanoma = system: UACC-62 melanoma
SW-620 colon = system: SW-620 colon

Q: What does the source list for COc1cc(Nc2nc3ccccc3n3cccc23)cc(OC)c1OC?
A: TGI (OVCAR-3 ovarian): > 100 µM; TGI (UO-31 renal): > 100 µM; TGI (EKVX NSCLC): > 100 µM; TGI (HCC-2998 colon): > 100 µM; TGI (SK-MEL-28 melanoma): > 100 µM; TGI (BT-549 breast): > 100 µM; TGI (SK-MEL-5 melanoma): > 100 µM; TGI (HOP-62 NSCLC): 72.9 µM; TGI (SR leukemia): > 100 µM; TGI (U251 CNS): > 100 µM; TGI (UACC-257 melanoma): > 100 µM; TGI (T-47D breast): 821 nM; TGI (CCRF-CEM leukemia): > 100 µM; TGI (PC-3 prostate): > 100 µM; TGI (NCI-H460 lung): > 100 µM; TGI (NCI/ADR-RES ovarian): > 100 µM; TGI (MDA-MB-435): > 100 µM; TGI (HCT-15 colon): > 100 µM; TGI (HS 578T breast): > 100 µM; TGI (KM12 colon): > 100 µM; TGI (NCI-H522 lung): > 100 µM; TGI (DU-145 prostate): > 100 µM; TGI (K-562 leukemia): > 100 µM; TGI (RXF 393 renal): 99.6 µM; TGI (SF-539 CNS): > 100 µM; TGI (HOP-92 NSCLC): > 100 µM; TGI (786-0 renal): > 100 µM; TGI (HT29 colon): > 100 µM; TGI (M14 melanoma): > 100 µM; TGI (COLO 205 colon): > 100 µM; TGI (MALME-3M melanoma): > 100 µM; TGI (MCF7 breast): > 100 µM; TGI (ACHN renal): > 100 µM; TGI (TK-10 renal): > 100 µM; TGI (LOX IMVI melanoma): > 100 µM; TGI (NCI-H23 lung): > 100 µM; TGI (SK-MEL-2 melanoma): > 100 µM; TGI (A498 renal): > 100 µM; TGI (CAKI-1 renal): > 100 µM; TGI (HL-60(TB) leukemia): > 100 µM; TGI (MDA-MB-231 breast): > 100 µM; TGI (SNB-19 CNS): > 100 µM; TGI (OVCAR-5 ovarian): > 100 µM; TGI (SK-OV-3 ovarian): > 100 µM; TGI (OVCAR-8 ovarian): > 100 µM; TGI (SF-268 CNS): > 100 µM; TGI (MOLT-4 leukemia): > 100 µM; TGI (RPMI-8226 leukemia): > 100 µM; TGI (IGROV1 ovarian): > 100 µM; TGI (SF-295 CNS): > 100 µM; TGI (HCT-116 colon): > 100 µM; TGI (A549 NSCLC): > 100 µM; TGI (UACC-62 melanoma): > 100 µM; TGI (SW-620 colon): > 100 µM

From PubChem BioAssay (NCI)
